According to PubChem BioAssay (NCI):
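Where inhibition never reached the appropriate level, the endpoint shown equals the highest concentration tested. Otherwise, values were interpolated linearly from a five-concentration, 48-hour dose response in 96-well plates. The concentration for 50% growth inhibition is given as GI50. TGI: total growth inhibition.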

How the values were obtained:
Test in all cases: growth of human tumour cells (NCI), 48 h
[1] = tested on: OVCAR-4 ovarian
[2] = tested on: TK-10 renal
[3] = tested on: RPMI-8226 leukemia
[4] = tested on: HOP-62 NSCLC
[5] = tested on: SW-620 colon
[6] = tested on: BT-549 breast
[7] = tested on: NCI-H460 lung
[8] = tested on: UACC-62 melanoma
[9] = tested on: MDA-MB-435
[10] = tested on: DU-145 prostate
[11] = tested on: SK-MEL-28 melanoma
[12] = tested on: HS 578T breast
[13] = tested on: M14 melanoma
[14] = tested on: OVCAR-8 ovarian
[15] = tested on: KM12 colon
[16] = tested on: OVCAR-5 ovarian
[17] = tested on: SR leukemia
[18] = tested on: HOP-92 NSCLC
[19] = tested on: SNB-19 CNS
[20] = tested on: SF-268 CNS
[21] = tested on: NCI-H226 lung
[22] = tested on: SK-MEL-5 melanoma
[23] = tested on: EKVX NSCLC
[24] = tested on: RXF 393 renal
[25] = tested on: UACC-257 melanoma
[26] = tested on: SF-295 CNS
[27] = tested on: MCF7 breast
[28] = tested on: SNB-75 CNS
[29] = tested on: PC-3 prostate
[30] = tested on: OVCAR-3 ovarian
[31] = tested on: A549 NSCLC
[32] = tested on: NCI-H23 lung
[33] = tested on: U251 CNS
[34] = tested on: K-562 leukemia
[35] = tested on: SN12C renal
[36] = tested on: SK-OV-3 ovarian
[37] = tested on: SK-MEL-2 melanoma
[38] = tested on: A498 renal
[39] = tested on: COLO 205 colon
[40] = tested on: NCI/ADR-RES ovarian
[41] = tested on: LOX IMVI melanoma
[42] = tested on: IGROV1 ovarian
[43] = tested on: NCI-H522 lung
[44] = tested on: CCRF-CEM leukemia
[45] = tested on: MOLT-4 leukemia
[46] = tested on: SF-539 CNS
[47] = tested on: HCT-116 colon
[48] = tested on: HCT-15 colon
[49] = tested on: HT29 colon
[50] = tested on: HCC-2998 colon
[51] = tested on: UO-31 renal
[52] = tested on: 786-0 renal
[53] = tested on: HL-60(TB) leukemia
[54] = tested on: MDA-MB-231 breast
[55] = tested on: CAKI-1 renal
[56] = tested on: T-47D breast
[57] = tested on: MALME-3M melanoma
[58] = tested on: ACHN renal

SMILES: CCCC[C@H](NC(=O)[C@H]1CCCN1C)C(=O)N(C)[C@H](C[C@@H](OC(C)=O)c1nc(C(=O)N[C@@H](Cc2ccccc2)C[C@H](C)C(=O)OCC)cs1)C(C)C
- GI50 [1]: 357 nM
- TGI [1]: > 33300 nM
- GI50 [2]: 6880 nM
- TGI [2]: > 33300 nM
- GI50 [3]: 3.99 nM
- TGI [3]: 4840 nM
- GI50 [4]: 43.9 nM
- TGI [4]: > 33300 nM
- GI50 [5]: 10.6 nM
- TGI [5]: > 33300 nM
- GI50 [6]: 16.8 nM
- TGI [6]: 447 nM
- GI50 [7]: 10.5 nM
- TGI [7]: 4040 nM
- GI50 [8]: 4.89 nM
- TGI [8]: > 33300 nM
- GI50 [9]: < 3.33 nM
- TGI [9]: 6.55 nM
- GI50 [10]: 13.7 nM
- TGI [10]: > 33300 nM
- GI50 [11]: 29 nM
- TGI [11]: 17400 nM
- GI50 [12]: 18.6 nM
- TGI [12]: 6920 nM
- GI50 [13]: 16.3 nM
- TGI [13]: 3770 nM
- GI50 [14]: 36 nM
- TGI [14]: > 33300 nM
- GI50 [15]: 11.4 nM
- TGI [15]: 18000 nM
- GI50 [16]: 64.2 nM
- TGI [16]: > 33300 nM
- GI50 [17]: < 3.33 nM
- TGI [17]: 5240 nM
- GI50 [18]: 1900 nM
- TGI [18]: 32700 nM
- GI50 [19]: 10 nM
- TGI [19]: > 33300 nM
- GI50 [20]: 21.7 nM
- TGI [20]: 25200 nM
- GI50 [21]: 531 nM
- TGI [21]: 16400 nM
- GI50 [22]: < 3.33 nM
- TGI [22]: 63 nM
- GI50 [23]: 59.1 nM
- TGI [23]: > 33300 nM
- GI50 [24]: 7.45 nM
- TGI [24]: 11300 nM
- GI50 [25]: 7810 nM
- TGI [25]: > 33300 nM
- GI50 [26]: 13.9 nM
- TGI [26]: 4130 nM
- GI50 [27]: < 3.33 nM
- TGI [27]: > 33300 nM
- GI50 [28]: 15.2 nM
- TGI [28]: 8920 nM
- GI50 [29]: 9.57 nM
- TGI [29]: > 33300 nM
- GI50 [30]: 8.3 nM
- TGI [30]: 6380 nM
- GI50 [31]: 50.1 nM
- TGI [31]: > 33300 nM
- GI50 [32]: 59.4 nM
- TGI [32]: > 33300 nM
- GI50 [33]: 14.4 nM
- TGI [33]: > 33300 nM
- GI50 [34]: 7.26 nM
- TGI [34]: > 33300 nM
- GI50 [35]: 31.6 nM
- TGI [35]: 8410 nM
- GI50 [36]: 96.9 nM
- TGI [36]: > 33300 nM
- GI50 [37]: 6.13 nM
- TGI [37]: 8710 nM
- GI50 [38]: 7.14 nM
- TGI [38]: 84.1 nM
- GI50 [39]: 13.2 nM
- TGI [39]: 96.1 nM
- GI50 [40]: 542 nM
- TGI [40]: > 33300 nM
- GI50 [41]: 17.3 nM
- TGI [41]: 9990 nM
- GI50 [42]: 15.7 nM
- TGI [42]: > 33300 nM
- GI50 [43]: 3.41 nM
- TGI [43]: 14.3 nM
- GI50 [44]: 12.2 nM
- TGI [44]: 6410 nM
- GI50 [45]: 25.8 nM
- TGI [45]: 15500 nM
- GI50 [46]: 22 nM
- TGI [46]: 241 nM
- GI50 [47]: 12.5 nM
- TGI [47]: > 33300 nM
- GI50 [48]: 36.5 nM
- TGI [48]: > 33300 nM
- GI50 [49]: 9.74 nM
- TGI [49]: 41.4 nM
- GI50 [50]: 11.3 nM
- TGI [50]: 10900 nM
- GI50 [51]: 209 nM
- TGI [51]: > 33300 nM
- GI50 [52]: 17.1 nM
- TGI [52]: 9960 nM
- GI50 [53]: 5.8 nM
- TGI [53]: 25.3 nM
- GI50 [54]: 18 nM
- TGI [54]: 844 nM

SMILES: COc1ccc2c(CCCC(c3ccccc3)c3ccccc3)c3[n+](cc2c1OC)CCc1cc2c(cc1-3)OCO2
- GI50 [2]: 324 nM
- TGI [2]: 1290 nM
- GI50 [5]: 323 nM
- TGI [5]: 1390 nM
- GI50 [8]: 243 nM
- TGI [8]: 1060 nM
- GI50 [9]: 293 nM
- TGI [9]: 1150 nM
- GI50 [10]: 470 nM
- TGI [10]: 1720 nM
- GI50 [55]: 2270 nM
- TGI [55]: 6510 nM
- GI50 [12]: 370 nM
- TGI [12]: 2100 nM
- GI50 [22]: 149 nM
- TGI [22]: 284 nM
- GI50 [34]: 318 nM
- TGI [34]: 1740 nM
- GI50 [36]: 303 nM
- TGI [36]: 1050 nM
- GI50 [37]: 271 nM
- TGI [37]: 1110 nM
- GI50 [38]: 96.9 nM
- TGI [38]: 996 nM
- GI50 [40]: 4830 nM
- TGI [40]: 38900 nM
- GI50 [44]: 453 nM
- TGI [44]: 2560 nM
- GI50 [45]: 376 nM
- TGI [45]: 2070 nM
- GI50 [49]: 219 nM
- TGI [49]: 1170 nM

SMILES: CCN(CC)CCOC(NC(C)=O)(c1ccccc1)c1ccccc1
- TGI [1]: > 100000 nM
- TGI [2]: > 100000 nM
- TGI [3]: > 100000 nM
- TGI [4]: > 100000 nM
- TGI [5]: > 100000 nM
- TGI [7]: > 100000 nM
- TGI [8]: > 100000 nM
- TGI [9]: > 100000 nM
- TGI [10]: > 100000 nM
- TGI [11]: > 100000 nM
- TGI [12]: > 100000 nM
- TGI [13]: > 100000 nM
- TGI [56]: > 100000 nM
- TGI [14]: > 100000 nM
- TGI [15]: > 100000 nM
- TGI [16]: > 100000 nM
- TGI [17]: > 100000 nM
- TGI [18]: > 100000 nM
- TGI [19]: > 100000 nM
- TGI [20]: > 100000 nM
- TGI [21]: > 100000 nM
- TGI [22]: > 100000 nM
- TGI [23]: > 100000 nM
- TGI [24]: > 100000 nM
- TGI [25]: > 100000 nM
- TGI [57]: > 100000 nM
- TGI [26]: > 100000 nM
- TGI [27]: > 100000 nM
- TGI [28]: > 100000 nM
- TGI [31]: > 100000 nM
- TGI [32]: > 100000 nM
- TGI [33]: > 100000 nM
- TGI [35]: > 100000 nM
- TGI [36]: > 100000 nM
- TGI [38]: > 100000 nM
- TGI [39]: > 100000 nM
- TGI [40]: > 100000 nM
- TGI [42]: > 100000 nM
- TGI [58]: > 100000 nM
- TGI [44]: > 100000 nM
- TGI [45]: > 100000 nM
- TGI [46]: > 100000 nM
- TGI [47]: > 100000 nM
- TGI [48]: > 100000 nM
- TGI [49]: > 100000 nM
- TGI [50]: > 100000 nM
- TGI [51]: > 100000 nM
- TGI [52]: > 100000 nM
- TGI [53]: > 100000 nM
- TGI [54]: > 100000 nM
